The record followed here is patent US12331044B2, “Inhibitors of histone deacetylase useful for the treatment or prevention of HIV infection” (Merck Sharp & Dohme LLC, priority 2018, dated 2025).

In general, IC50 refers to the midpoint of a concentration-inhibition curve. For orientation: EC50 means the concentration needed to bring the measured effect to its halfway point.

One test addresses HDAC6 (Homo sapiens (Human), UniProt Q9UBN7).
Test [1] addresses human HDAC3/SMRT heterodimer (Homo sapiens (Human), UniProt O15379).
Another test addresses human HDAC2 (Homo sapiens (Human), UniProt Q92769). The experiment in a line: HDAC2 inhibition assay (modified FLUOR DE LYS, 384-well). Type of test: biochemical. The settings on record: […] enzyme, 40 μM substrate BML-KI104, 3 h pre-incubation; read-out: HDAC2 IC50.
Another test concerns the target human HDAC8 (Homo sapiens (Human), UniProt Q9BY41). In words: HDAC8 inhibition assay (modified FLUOR DE LYS, 384-well). The following applies: […] enzyme, 200 μM substrate BML-KI178, 3 h pre-incubation; read-out: HDAC8 IC50. Type of test: biochemical.
The target in a further test is human HDAC1 (Homo sapiens (Human), UniProt Q13547).
For a further test, the system named is KARN cells (Jurkat 2C4). In words: cells. The following applies: Homo sapiens.
[2] abbreviates: read-out: Karn EC50 nM 0.1% NHS, 0.1% normal human serum, luciferase induction, 2 μM SAHA = 100%.
Where [3] appears, read: read-out: Karn EC50 nM 5% NHS, 5% normal human serum, luciferase induction, 2 μM SAHA = 100%.

Molecules are shown by their SMILES. Read-outs that look alike come from different tables or passages of the source.

Chain of HDAC6 (Q9UBN7 whole entry): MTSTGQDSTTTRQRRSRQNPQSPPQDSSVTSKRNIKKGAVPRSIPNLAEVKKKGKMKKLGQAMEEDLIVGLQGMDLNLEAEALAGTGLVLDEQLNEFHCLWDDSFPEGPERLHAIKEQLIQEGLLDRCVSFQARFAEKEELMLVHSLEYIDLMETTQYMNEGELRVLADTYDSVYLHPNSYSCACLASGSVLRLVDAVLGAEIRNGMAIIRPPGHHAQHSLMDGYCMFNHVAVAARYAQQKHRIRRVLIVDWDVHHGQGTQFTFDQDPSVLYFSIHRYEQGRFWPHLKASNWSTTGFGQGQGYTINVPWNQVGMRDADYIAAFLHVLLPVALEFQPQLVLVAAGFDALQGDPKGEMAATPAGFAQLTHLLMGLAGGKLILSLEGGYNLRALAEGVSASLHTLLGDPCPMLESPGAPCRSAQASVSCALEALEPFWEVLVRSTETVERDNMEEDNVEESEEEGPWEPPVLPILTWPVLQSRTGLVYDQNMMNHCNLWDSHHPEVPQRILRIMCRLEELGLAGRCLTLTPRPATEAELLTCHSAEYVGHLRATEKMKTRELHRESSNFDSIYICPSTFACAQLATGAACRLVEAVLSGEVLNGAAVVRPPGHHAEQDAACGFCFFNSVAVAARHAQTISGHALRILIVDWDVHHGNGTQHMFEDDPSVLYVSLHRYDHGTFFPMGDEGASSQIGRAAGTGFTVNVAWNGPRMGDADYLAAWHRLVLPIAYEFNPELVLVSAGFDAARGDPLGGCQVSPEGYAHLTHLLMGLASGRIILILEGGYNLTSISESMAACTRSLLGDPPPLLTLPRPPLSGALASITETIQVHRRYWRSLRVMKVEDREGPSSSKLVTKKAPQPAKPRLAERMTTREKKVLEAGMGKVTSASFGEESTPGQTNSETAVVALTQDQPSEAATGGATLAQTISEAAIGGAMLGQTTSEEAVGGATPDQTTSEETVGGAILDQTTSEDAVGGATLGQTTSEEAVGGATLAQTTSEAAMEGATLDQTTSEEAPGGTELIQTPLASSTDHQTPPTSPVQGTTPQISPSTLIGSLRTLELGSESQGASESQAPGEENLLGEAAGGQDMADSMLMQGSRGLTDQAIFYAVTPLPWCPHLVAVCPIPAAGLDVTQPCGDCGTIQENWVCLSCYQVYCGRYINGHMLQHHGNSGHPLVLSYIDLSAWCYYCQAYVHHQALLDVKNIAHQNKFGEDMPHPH
Chain of human HDAC2 (Q92769 whole entry): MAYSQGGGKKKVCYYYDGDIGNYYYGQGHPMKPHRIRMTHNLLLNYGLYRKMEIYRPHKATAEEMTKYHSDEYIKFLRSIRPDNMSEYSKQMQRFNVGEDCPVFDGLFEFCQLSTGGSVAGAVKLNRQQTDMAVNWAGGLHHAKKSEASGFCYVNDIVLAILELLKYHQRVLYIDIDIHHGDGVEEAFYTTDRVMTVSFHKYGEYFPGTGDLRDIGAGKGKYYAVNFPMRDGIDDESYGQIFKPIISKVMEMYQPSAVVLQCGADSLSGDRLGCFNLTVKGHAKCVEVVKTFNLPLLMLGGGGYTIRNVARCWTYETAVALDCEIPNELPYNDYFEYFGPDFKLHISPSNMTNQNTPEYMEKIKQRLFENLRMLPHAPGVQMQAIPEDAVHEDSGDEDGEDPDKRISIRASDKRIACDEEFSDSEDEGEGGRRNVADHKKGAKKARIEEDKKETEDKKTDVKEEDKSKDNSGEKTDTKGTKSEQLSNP
Chain of human HDAC8 (Q9BY41 whole entry): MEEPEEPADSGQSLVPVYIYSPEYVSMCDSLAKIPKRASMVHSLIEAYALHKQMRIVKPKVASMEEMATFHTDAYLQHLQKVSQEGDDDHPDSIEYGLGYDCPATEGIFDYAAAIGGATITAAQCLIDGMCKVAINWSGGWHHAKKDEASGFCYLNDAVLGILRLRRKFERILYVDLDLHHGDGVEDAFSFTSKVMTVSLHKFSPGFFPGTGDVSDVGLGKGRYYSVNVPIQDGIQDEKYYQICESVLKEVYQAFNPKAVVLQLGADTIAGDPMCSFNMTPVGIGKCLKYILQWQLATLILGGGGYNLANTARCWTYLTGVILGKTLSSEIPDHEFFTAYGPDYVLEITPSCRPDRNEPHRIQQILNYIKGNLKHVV
Chain of human HDAC1 (Q13547 whole entry): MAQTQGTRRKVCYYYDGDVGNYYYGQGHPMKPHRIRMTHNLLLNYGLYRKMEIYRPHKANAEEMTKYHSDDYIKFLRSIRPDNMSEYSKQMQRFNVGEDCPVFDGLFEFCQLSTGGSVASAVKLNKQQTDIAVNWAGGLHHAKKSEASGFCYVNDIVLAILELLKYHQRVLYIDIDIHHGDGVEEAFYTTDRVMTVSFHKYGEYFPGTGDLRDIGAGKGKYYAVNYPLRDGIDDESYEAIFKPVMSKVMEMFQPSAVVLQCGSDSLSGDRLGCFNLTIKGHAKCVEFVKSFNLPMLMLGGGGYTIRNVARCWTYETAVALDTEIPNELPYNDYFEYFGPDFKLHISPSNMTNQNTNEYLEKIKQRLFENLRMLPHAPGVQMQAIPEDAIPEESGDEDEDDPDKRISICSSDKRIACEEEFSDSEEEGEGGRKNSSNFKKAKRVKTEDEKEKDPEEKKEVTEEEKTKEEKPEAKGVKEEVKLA
Chain of human HDAC3/SMRT heterodimer (O15379 whole entry): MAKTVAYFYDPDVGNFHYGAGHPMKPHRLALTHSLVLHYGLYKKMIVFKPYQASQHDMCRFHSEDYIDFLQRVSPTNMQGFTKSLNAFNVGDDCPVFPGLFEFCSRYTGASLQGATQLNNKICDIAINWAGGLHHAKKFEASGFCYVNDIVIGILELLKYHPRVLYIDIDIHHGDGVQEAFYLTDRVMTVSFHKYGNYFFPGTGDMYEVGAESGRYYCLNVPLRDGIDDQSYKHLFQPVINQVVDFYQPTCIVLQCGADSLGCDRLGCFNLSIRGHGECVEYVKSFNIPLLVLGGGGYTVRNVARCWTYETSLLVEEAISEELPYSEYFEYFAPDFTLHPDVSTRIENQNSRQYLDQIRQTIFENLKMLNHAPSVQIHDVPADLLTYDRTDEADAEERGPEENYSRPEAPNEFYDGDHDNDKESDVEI
Chain of human HDAC3/SMRT heterodimer (Q9Y618 1-899 partner): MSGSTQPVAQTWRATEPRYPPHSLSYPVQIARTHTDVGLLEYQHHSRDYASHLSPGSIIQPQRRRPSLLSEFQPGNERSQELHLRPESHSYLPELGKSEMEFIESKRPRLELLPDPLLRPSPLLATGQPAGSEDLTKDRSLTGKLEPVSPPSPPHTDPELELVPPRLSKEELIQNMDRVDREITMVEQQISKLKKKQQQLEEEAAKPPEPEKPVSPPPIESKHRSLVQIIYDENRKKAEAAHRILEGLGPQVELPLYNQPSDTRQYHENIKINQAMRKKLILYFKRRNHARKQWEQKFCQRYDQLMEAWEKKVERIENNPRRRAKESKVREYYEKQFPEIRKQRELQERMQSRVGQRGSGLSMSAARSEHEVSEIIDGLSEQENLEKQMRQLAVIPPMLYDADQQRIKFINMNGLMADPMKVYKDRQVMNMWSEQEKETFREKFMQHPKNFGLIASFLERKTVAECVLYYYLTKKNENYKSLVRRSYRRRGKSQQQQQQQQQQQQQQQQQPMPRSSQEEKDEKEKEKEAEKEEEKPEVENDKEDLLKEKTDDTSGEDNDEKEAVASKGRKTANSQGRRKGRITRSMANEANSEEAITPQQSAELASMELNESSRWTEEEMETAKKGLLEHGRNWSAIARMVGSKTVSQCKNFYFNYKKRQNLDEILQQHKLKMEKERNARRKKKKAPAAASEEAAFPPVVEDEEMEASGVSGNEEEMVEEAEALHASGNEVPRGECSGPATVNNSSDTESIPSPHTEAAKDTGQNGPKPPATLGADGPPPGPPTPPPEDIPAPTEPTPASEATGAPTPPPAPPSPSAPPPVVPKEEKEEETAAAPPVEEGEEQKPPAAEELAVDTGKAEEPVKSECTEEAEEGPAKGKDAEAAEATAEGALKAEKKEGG
Experimental for human HDAC8: The histone deacetylase activities of HDAC1, HDAC2, HDAC3, HDAC6, and HDAC8 were measured in modified FLUOR DE LYS assays in 384-well format. In this assay, HDAC enzymes are initially incubated with an F-acetyl (or -trifluoroacetyl)-L-lysine-containing substrate with a C-terminal amide having aminomethylcoumarin as the amine component. HDACs cleave the F-acetyl group, rendering the resulting product susceptible to AMC cleavage by trypsin. The released AMC is then detected by its fluorescence. […] All steps were performed at room temperature (23° C.). The assay was performed by pre-incubating serial dilutions of test compounds with the target HDAC prior to initiation with substrate. […] Final conditions used for each assay were: 1. […] The reactions were stopped and developed by addition of 30 ul of HDAC developer solution containing a saturating level of HDAC inhibitor as follows: 1. […] For data analysis, background subtracted product (fluorescence) vs. time data for each inhibitor concentration was fitted using a 4-parameter fit.

Take `COc1cc2nc(C)ccc2cc1-c1cnc([C@H](CCCCCC(=O)c2ncco2)NC(=O)C2COc3ccccc3O2)[nH]1` (stereo partly drawn) [Example 171, N-[(1S)-1-[5-(7-methoxy-2-methylquinolin-6-yl)-1H-imidazol-2-yl]-7-(1,3-oxazol-2-yl)-7-oxoheptyl]-2,3-dihydro-1,4-benzodioxine-2-carboxamide]: the IC50 at HDAC6 is above 900 nM; in test [1], 4 nM; on human HDAC2, 56 nM; at human HDAC8, 340 nM; against human HDAC1, 11 nM. Further, the half-maximal effective concentration (EC50) in the test with KARN cells (Jurkat 2C4) (setting [2]) is 180 nM; in the test with KARN cells (Jurkat 2C4) (setting [3]), 470 nM.
Regarding `COc1cc2nc(C)ccc2cc1-c1cnc([C@H](CCCCCC(=O)c2ncco2)NC(=O)C2COC(c3ccccc3)CO2)[nH]1` (stereo partly drawn) [Example 172, N-[(1S)-1-[5-(7-methoxy-2-methylquinolin-6-yl)-1H-imidazol-2-yl]-7-(1,3-oxazol-2-yl)-7-oxoheptyl]-5-phenyl-1,4-dioxane-2-carboxamide], the IC50 against HDAC6 is above 900 nM; in test [1], 6.4 nM; at human HDAC2, 100 nM; on human HDAC8, 490 nM; against human HDAC1, 20 nM. Moreover, the EC50 in the test on KARN cells (Jurkat 2C4) (setting [2]) was determined as 340 nM; with KARN cells (Jurkat 2C4) (setting [3]), 990 nM.
With `COc1cc2nc(C)ccc2cc1-c1cnc([C@H](CCCCCC(=O)c2ncco2)NC(=O)C2COCCO2)[nH]1` (stereo partly drawn) [Example 173, N-[(1S)-1-[5-(7-methoxy-2-methylquinolin-6-yl)-1H-imidazol-2-yl]-7-(1,3-oxazol-2-yl)-7-oxoheptyl]-1,4-dioxane-2-carboxamide], the concentration for half-maximal inhibition (IC50) on HDAC6 was above 900 nM; in test [1] it was 0.43 nM; at human HDAC2, 3.2 nM; at human HDAC8, 83 nM; against human HDAC1, 1.1 nM. Also, the EC50 in the test with KARN cells (Jurkat 2C4) (setting [2]) was determined as 42 nM; with KARN cells (Jurkat 2C4) (setting [3]), 74 nM.
Consider `COc1cc(-c2cnc([C@H](CCCCCC(=O)c3ncco3)NC(=O)C3CN(C)C3)[nH]2)c(F)cn1` [Example 178, N-[(1S)-1-[5-(5-fluoro-2-methoxypyridin-4-yl)-1H-imidazol-2-yl]-7-(1,3-oxazol-2-yl)-7-oxoheptyl]-1-methylazetidine-3-carboxamide], for which the IC50 against HDAC6 worked out at 5300 nM; in test [1] it was 1.5 nM; on human HDAC2, 7.8 nM; on human HDAC8 it was 83 nM; at human HDAC1, 2 nM. Besides, the values for the 50% effective concentration (EC50) in the test with KARN cells (Jurkat 2C4) (setting [2]) and with KARN cells (Jurkat 2C4) (setting [3]) were 80 nM and 1000 nM, respectively.
Turning to `CCN1CCC2(CC1)C[C@@H]2C(=O)N[C@@H](CCCCCC(=O)c1ncco1)c1ncc(-c2cc(OC)ncc2F)[nH]1` [Example 179, (1S)-6-ethyl-N-[(1S)-1-[5-(5-fluoro-2-methoxypyridin-4-yl)-1H-imidazol-2-yl]-7-(1,3-oxazol-2-yl)-7-oxoheptyl]-6-azaspiro[2.5]octane-1-carboxamide], the half-maximal inhibitory concentration (IC50) stood at 4300 nM on HDAC6; 1.5 nM in test [1]; 7.1 nM at human HDAC2; 65 nM at human HDAC8; 2.3 nM against human HDAC1. In addition, the concentration for a half-maximal effect (EC50) in the test on KARN cells (Jurkat 2C4) (setting [2]) worked out at 36 nM; with KARN cells (Jurkat 2C4) (setting [3]), 48 nM.
With `CCN1CCC2(CC1)C[C@@H]2C(=O)N[C@@H](CCCCCC(=O)c1ncco1)c1ccn(-c2ccc3nn(C)cc3c2)n1` [Example 180, (1S)-6-ethyl-N-[(1S)-1-[1-(2-methyl-2H-indazol-5-yl)-1H-pyrazol-3-yl]-7-(1,3-oxazol-2-yl)-7-oxoheptyl]-6-azaspiro[2.5]octane-1-carboxamide], the half-inhibitory concentration (IC50) on HDAC6 is above 900 nM; in test [1] it was 1.5 nM; on human HDAC2 it was 5.2 nM; at human HDAC8, 170 nM; against human HDAC1 it was 0.9 nM. The EC50 in the test on KARN cells (Jurkat 2C4) (setting [2]) was found to be 200 nM; in the test on KARN cells (Jurkat 2C4) (setting [3]) it was 190 nM.
Regarding `CN1CC(C(=O)N[C@@H](CCCCCC(=O)c2ncco2)c2ncc(-c3cc(OC4CCC4)ccc3F)[nH]2)C1` [Example 181, N-[(1S)-1-{5-[5-(cyclobutyloxy)-2-fluorophenyl]-1H-imidazol-2-yl}-7-(1,3-oxazol-2-yl)-7-oxoheptyl]-1-methylazetidine-3-carboxamide], the 50% inhibitory concentration (IC50) is above 900 nM against HDAC6; 1 nM in test [1]; 13 nM at human HDAC2; 12 nM at human HDAC8; 2.6 nM against human HDAC1. Moreover, the half-maximal effective concentration (EC50) came to 84 nM in the test with KARN cells (Jurkat 2C4) (setting [2]) and 630 nM in the test with KARN cells (Jurkat 2C4) (setting [3]).
As to `CCN1CCC2(CC1)C[C@@H]2C(=O)N[C@@H](CCCCCC(=O)c1ncco1)c1ncc(-c2cc(OC3CCC3)ccc2F)[nH]1` [Example 182, (1S)-N-[(1S)-1-{5-[5-(cyclobutyloxy)-2-fluorophenyl]-1H-imidazol-2-yl}-7-(1,3-oxazol-2-yl)-7-oxoheptyl]-6-ethyl-6-azaspiro[2.5]octane-1-carboxamide], the IC50 is above 900 nM at HDAC6; 0.79 nM in test [1]; 9.1 nM at human HDAC2; 5.6 nM at human HDAC8; 2 nM against human HDAC1. For the same compound, the EC50 in the test on KARN cells (Jurkat 2C4) (setting [2]) came out at 41 nM; with KARN cells (Jurkat 2C4) (setting [3]), 190 nM.
On to `CCN1CCC2(CC1)C[C@@H]2C(=O)N[C@@](C)(CCCCCC(=O)c1ccon1)c1ncc(-c2ccccc2F)[nH]1` [Example 183, (S)-6-ethyl-N-((S)-2-(5-(2-fluorophenyl)-1H-imidazol-2-yl)-8-(isoxazol-3-yl)-8-oxooctan-2-yl)-6-azaspiro[2.5]octane-1-carboxamide], for which the IC50 at HDAC6 amounted to 43000 nM; in test [1] it was 0.48 nM; at human HDAC2, 2.3 nM; at human HDAC8, 550 nM; against human HDAC1, 0.56 nM. For the same compound, the EC50 with KARN cells (Jurkat 2C4) (setting [2]) and in the test with KARN cells (Jurkat 2C4) (setting [3]) was 37 nM throughout.
As to `CN1CCC2(CC1)C[C@@H]2C(=O)N[C@@H](CCCCCC(=O)c1ncco1)c1[nH]c(-c2ccc(F)cc2)nc1C#N` [Example 187, (S)-N-((S)-1-(4-cyano-2-(4-fluorophenyl)-1H-imidazol-5-yl)-7-(oxazol-2-yl)-7-oxoheptyl)-6-methyl-6-azaspiro[2.5]octane-1-carboxamide], the concentration for half-maximal inhibition (IC50) on HDAC6 came to 45000 nM; in test [1], 0.16 nM; on human HDAC2, 0.83 nM; on human HDAC8 it was 170 nM; at human HDAC1, 0.16 nM. Besides, the values for the EC50 in the test on KARN cells (Jurkat 2C4) (setting [2]) and in the test on KARN cells (Jurkat 2C4) (setting [3]) were 20 nM and 25 nM, respectively.
With `CN1CCC2(CC1)C[C@@H]2C(=O)N[C@@H](CCCCCC(=O)c1ncco1)c1oc(-c2ccc(F)cc2)nc1C#N` [Example 191, (S)-N-((S)-1-(4-cyano-2-(4-fluorophenyl)oxazol-5-yl)-7-(oxazol-2-yl)-7-oxoheptyl)-6-methyl-6-azaspiro[2.5]octane-1-carboxamide], the IC50 against HDAC6 is 45000 nM; in test [1], 1.9 nM; at human HDAC2, 12 nM; on human HDAC8, 2300 nM; at human HDAC1, 2.5 nM. The values for the EC50 in the test with KARN cells (Jurkat 2C4) (setting [2]) and in the test on KARN cells (Jurkat 2C4) (setting [3]) were 110 nM and 100 nM, respectively.
For `CN1CCC2(CC1)C[C@@H]2C(=O)N[C@@H](CCCCCC(=O)c1ccon1)c1nc(Cl)c(-c2ccc(F)cc2)[nH]1` [Example 195, (S)-N-((S)-1-(4-chloro-5-(4-fluorophenyl)-1H-imidazol-2-yl)-7-(isoxazol-3-yl)-7-oxoheptyl)-6-methyl-6-azaspiro[2.5]octane-1-carboxamide 2,3-dihydroxysuccinate], the half-maximal inhibitory concentration (IC50) came out at 3100 nM at HDAC6; 0.046 nM in test [1]; 0.32 nM on human HDAC2; 9.6 nM on human HDAC8; 0.14 nM against human HDAC1. Further, the results for the EC50 in the test on KARN cells (Jurkat 2C4) (setting [2]) and in the test on KARN cells (Jurkat 2C4) (setting [3]) were 1.4 nM and 1.9 nM, respectively.
